Earlier results as cited in patent EP3297603B1, “CINEOLE-CONTAINING AQUEOUS COMPOSITION FOR NASAL APPLICATION” (Maria Clementine Martin Klosterfrau Vertriebsgesellschaft …, priority 2015, dated 2017).

Details: general property, reference to RÖMPP Chemielexikon

## CC12CCC(CC1)C(C)(C)O2 [1,8-Cineol, 1,3,3-Trimethyl-2-oxabicyclo[2.2.2]octan]
  Löslichkeit in Wasser: in Wasser unlöslich
